# Measurements published in US4558060A, “Benzoxazolinones” (Riom Laboratories - Cerm S.A., priority 1982, dated 1985).
# Where a name gives a salt, the structure may show the parent alone. Read-outs that look alike come from different tables or passages of the source.
# Key:
# dogs = assay: Pentobarbital-induced heart failure in anaesthetized dogs, intraduodenal administration; format: in vivo; settings: 1 mg/kg I.D.; for Aortic capacity / Bradycardia and hypotension induced by pentobarbital / Inotropic effect: after 20 minutes
# Description: In addition to the activity pattern described above the compounds of formula I, in which R1 and R2 both represent hydrogen have a particularly beneficial effect in the treatment of heart failure. The latter activity has been tested using a technique derived from Deitchman and Snyder, Arch.Int. Pharmacodyn. 250, 65 (1981).
# After having been anaesthesized dogs under articicial respiration are connected with pieces of apparatus for continuous monitoring the left intraventicular pressure, the dP/dt max, the amplitude of the left ventricular contraction, the aortic capacity, the heart frequency and the arteric pressure.
# Heart failure is induced by intravenous administration of pentobarbital at a dose of 20 mg per kg body weight per minute until a decrease of 50% of dP/dt max is obtained after which this level is maintained by pentobarbital administration at a dose of 0.4 mg/kg/min. Ten minutes after the beginning of this heart failure effect the products to be tested are administered. The results are compared with those obtained using Dopamine and Dobutamine as reference compounds.
# Then the test was repeated by administering the products intraduodenally (I.D.). Dopamine and Dobutamine were administered at a dose of 10 mg/kg I.D. and the compounds of the invention at a dose of 1 mg/kg.
# mice [1] = assay: Spontaneous motility; format: in vivo; settings: Mus musculus, 20 min, read-out: Spontaneous motility, variation; for change in vivo at 25 mg/kg: dose 25 mg.kg^-1
# Protocol: (§1) The acute toxicity and central nervous system activity of the compounds of the invention were investigated in mice using various test-models. These tests were carried out in accordance with the procedures summarised below.
# Groups of 4 mice prepared as above are placed in circular corridors intersected by infrared beams, making it possible to count the number of movements made by the animals. The number of movements is summed up after 20 minutes and the results are expressed as the percentage variation relative to the group of control animals, which have only received the vehicle (gum arabic/water).
# [2] = Acute toxicity (mortality after 24 hours); settings: mouse, in vivo, po
# Protocol: as §1
# Male mice of the OF1, IFFA, CREDO strain and having an average weight of 22±1 g, receive, by oesophagial intubation, a solution of arabic gum and distilled water (1/2-1/2) containing the compound to be studied, at a rate of 0.25 ml per 20 g of body weight. The symptomatology of the intoxication was observed and the mortality was recorded after 24 hours.
# mice [3] = assay: Hypnotic activity (sleep induction time, sleep time); format: in vivo
# Protocol: as §1
# Mice receive, by intraperitoneal administration, 0.25 ml per 20 g of body weight of a solution consisting of arabic gum and of 0.154M NaCl solution (1/2-1/2) containing 12.5 mg.kg.^-1 of the compound to be studied, and the "sleep induction time"--the time taken for the loss of righting reflex to appear after the animal has been placed in the dorsal decubitus position--and the "sleep time"--the duration of the above loss of reflex--are then noted. For this test, pentobarbital is given as a reference, administered at a dose of 50 mg.kg.^-1.
# [4] = dose 50 mg.kg^-1, relative to control animals, 20 minutes
# [5] = mice, oesophagial intubation, mortality after 24 hours, read-out: Estimated LD 50
# [6] = relative to control animals, 20 minutes
# [7] = pentobarbital reference, 50 mg.kg^-1
compound,measurement,setting,value
"Cn1c(=O)oc2cc(CCN)ccc21 [Compound 2, 3-Methyl-6-(2-aminoethyl)-benzoxazolinone(hydrochloride)]",Duration of the effects,dogs,at least 60 minutes
same,Aortic capacity,dogs,increase of the aortic capacity
same,Bradycardia and hypotension induced by pentobarbital,dogs,recovery of the bradycardia and the hypotension induced by pentobarbital
same,Inotropic effect,dogs,strong positive inotropic effect
Cn1c(=O)oc2cc(CCN3CCN(c4cccc(C(F)(F)F)c4)CC3)ccc21 [Compound 3],change in vivo at 50 mg/kg,mice [1]; [4],-97.5%
same,LD50 at 24 h,[2],1000 mg/kg
Cn1c(=O)oc2cc(CCN3CCOCC3)ccc21 [Compound 4],change in vivo at 12.5 mg/kg,"mice [1]; dose 12.5 mg.kg^-1, relative to control animals, 20 minutes",-11.9%
same,LD50 at 24 h,[2]; [5],1200 mg/kg
Cn1c(=O)oc2cc(CCN3CCN(c4ncccn4)CC3)ccc21 [Compound 7],change in vivo at 50 mg/kg,mice [1]; [4],-69.9%
same,LD50 at 24 h,[2],1200 mg/kg
O=c1[nH]c2ccc(CCN3CCN(c4cccc(C(F)(F)F)c4)CC3)cc2o1 [Compound 8],change in vivo at 25 mg/kg,mice [1]; [6],-93.5%
same,LD50 at 24 h,[2],1000 mg/kg
"COc1ccccc1N1CCN(CCc2ccc3c(c2)oc(=O)n3C)CC1 [Compound 9, 3-Methyl-6-(2-[4-(2-methoxyphenyl)-piperazin-1-yl]-ethyl)-benzoxazolinone]",change in vivo at 6.25 mg/kg,mice [1],-93.2%
same,"Hypnotic activity, sleep induction time","mice [3]; 12.5 mg.kg^-1, intraperitoneal",18 ± 7.5 min
same,"Hypnotic activity, sleep time","mice [3]; 12.5 mg.kg^-1, intraperitoneal",46.2 ± 15 min
same,LD50 at 24 h,[2]; [5],600 mg/kg
"COc1ccccc1N1CCN(CCc2ccc3[nH]c(=O)oc3c2)CC1 [Compound 10, 6-(2-[4-(2-methoxyphenyl)-piperazin-1-yl]-ethyl)-benzoxazolinone]",change in vivo at 6.25 mg/kg,mice [1],-99.3%
same,"Hypnotic activity, sleep induction time","mice [3]; 12.5 mg.kg^-1, intraperitoneal",18.2 ± 4.3 min
same,"Hypnotic activity, sleep time","mice [3]; 12.5 mg.kg^-1, intraperitoneal",86 ± 15 min
same,LD50 at 24 h,[2]; [5],1000 mg/kg
CNCCc1ccc2[nH]c(=O)oc2c1 [Compound 12],change in vivo at 50 mg/kg,mice [1],-28%
same,LD50 at 24 h,[2]; [5],1200 mg/kg
NCCc1ccc2[nH]c(=O)oc2c1 [Compound 15],change in vivo at 50 mg/kg,mice [1],-23.2%
same,LD50 at 24 h,[2]; [5],1200 mg/kg
same,Aortic capacity,dogs,increase of the aortic capacity
same,Bradycardia and hypotension induced by pentobarbital,dogs,recovery of the bradycardia and the hypotension induced by pentobarbital
same,Inotropic effect,dogs,strong positive inotropic effect
Cn1c(=O)oc2cc(CCNC3CC3)ccc21 [Compound 16],change in vivo at 50 mg/kg,mice [1],-34.4%
same,LD50 at 24 h,[2]; [5],600 mg/kg
O=c1[nH]c2ccc(CCN3CCN(c4ncccn4)CC3)cc2o1 [Compound 17],change in vivo at 25 mg/kg,mice [1]; [6],-62.8%
same,LD50 at 24 h,[2],480 mg/kg
"Cn1c(=O)oc2cc(CCN3CCN(c4ccc(F)cc4)CC3)ccc21 [Compound 18, 3-Methyl-6-(-[4-(4-fluorophenyl)-piperazin-1-yl]-ethyl)-benzoxazolinone]",change in vivo at 6.25 mg/kg,mice [1],-98.8%
same,"Hypnotic activity, sleep induction time","mice [3]; 12.5 mg.kg^-1, intraperitoneal",26.9 ± 6 min
same,"Hypnotic activity, sleep time","mice [3]; 12.5 mg.kg^-1, intraperitoneal",132 ± 25 min
same,LD50 at 24 h,[2]; [5],1000 mg/kg
O=c1[nH]c2ccc(CCN3CCN(c4ccc(F)cc4)CC3)cc2o1 [Compound 19],change in vivo at 6.25 mg/kg,mice [1],-97%
same,Hypnotic activity (in words),"mice [3]; 12.5 mg.kg^-1, intraperitoneal",strong hypnotic activity
same,"Hypnotic activity, sleep induction time","mice [3]; 12.5 mg.kg^-1, intraperitoneal",15.1 ± 2 min
same,"Hypnotic activity, sleep time","mice [3]; 12.5 mg.kg^-1, intraperitoneal",78 ± 16 min
same,LD50 at 24 h,[2]; [5],1000 mg/kg
"CCCC(C)C1(CC)C(=O)NC(=O)NC1=O (stereo not drawn) [pentobarbital, reference compound]","Hypnotic activity, sleep induction time (reference)",mice [3]; [7],9.5 ± 2.2 min
same,"Hypnotic activity, sleep time (reference)",mice [3]; [7],48 ± 7 min
